Data from patent US4908364A, “Substituted 3-phenyl-7H-thiazol[3,2-b][1,2,4]-triazin-7-ones” (Hoechst Aktiengesellschaft, priority 1987, dated 1990).
Where two headings read alike, the source gives them in different places.

Experiments:
[1] = test system: Adjuvant arthritis; test: Adjuvant arthritis (paw volume increase); type: in vivo, male rats of a Wistar-Lewis strain; details: for ED50: Rattus norvegicus, po, read-out: ED50 in adjuvant arthritis; for Adjuvant arthritis (% inhibition at 50 mg/kg p.o.): rat, 50 mg/kg p.o. once daily, day 1 to day 5, reduction in increase in paw volume vs control
Protocol: The investigations were carried out by the method of Pearson (Arthrit. Rheum. 2 (1959) p. 44). The experimental animals used were male rats of a Wistar-Lewis strain having a body weight between 130 and 200 g. The compounds to be tested were administered orally (p.o.) once daily from day 1 to day 5 of the experiment in doses of 50 mg per kg of body weight. The animals of a control group received only the vehicle. Each preparation and control group comprised 8 animals. The criterion used to determine an action was the percentage reduction in the increase in paw volume compared to that of the untreated control group.

[2] = Acute gastral ulcerogenity; design: species or system male Sprague-Dawley rats; details: rat, in vivo, po
Protocol: The investigation took place in each case on 10 male Sprague-Dawley rats in which the gastric mucous membrane had been sensitized by hunger stress. The body weight of the animals was between 200 and 300 g. While allowing free access to the drinking water, the feed was withdrawn 48 hours before administration of the test preparations until sacrifice of the animals. The rats were sacrificed 24 hours after oral administration of the substance, and the stomachs were removed, cleaned under running water and inspected for mucous membrane lesions. All macroscopically visible lesions were regarded as ulcers. The number of animals having ulcers was determined for each dose, and the UD50 values, i.e. the doses at which lesions were caused in 50% of the animals, were calculated from this number by the method of Litchfield and Wilcoxon (J. Pharmacol. Exp. Ther. 96 (1949) p. 99).

[3] = in vivo; details: mouse, ip; for LD50 at 168 h: read-out: Acute toxicity LD50
Protocol: The LD50 values were determined by a standard method from the mortality occurring within 7 days in NMRI (Naval Medical Research Institute) mice (6 animals per dose) after a single intraperitoneal (i.p.) administration.

[4] = test system: lymphocytes; test: Stimulation of suppressed immune response of lymphocytes towards mitogens in adjuvant arthritis; type: in vivo, rat; details: oral, Example 1 at 3.15 and 6.3 mg/kg, naproxen in doses up to 25 mg/kg
[5] = test system: Arthritis induced by type II collagen; test: Arthritis induced by type II collagen (paw volume); type: in vivo, male Wistar rats; details: for inhibition of the increase in paw volume, collagen arthritis: oral once daily, 20-day treatment, naproxen at the same dosage
Protocol: (§1) In this experiment, arthritis was induced in male Wistar rats using type II collagen, which was obtained by standard methods of Miller and Rhodes (Meth. Enzymol. 82 (1982) p. 33) from the nasal septum of the calf and, mixed with Freund's incomplete adjuvant, was injected intradermally into the animals. This immunization process was repeated 7 days later. 20 days after the initial immunization, the affected rats were divided into groups each comprising 7 animals, which received the particular test substance or the pure vehicle (control group) orally once daily in the subsequent 20-day treatment phase. On day 41 of the experiment, i.e. one day after the final administration of substance, the increase in volume of both rear paws was determined.

[6] = test system: lymphocytes; test: Immune activity of spleen lymphocytes towards mitogens in collagen arthritis; type: in vivo, male Wistar rats; details: Example 1: 12 mg/kg p.o.
Protocol: as §1
The immune status of lymphocytes is also disturbed sensitively in this model of collagen arthritis.

[7] = test system: Adriamycin-induced inflammation; test: Adriamycin-induced inflammation; type: in vivo, male Sprague-Dawley rats; details: for Increase in paw volume: 72 hours, control 430; for Protective action in %: * significance p < 0.05; for protective effect against tissue destruction induced by Adriamycin: oral
Excerpt: According to current opinion, aggressive oxygen radicals, which are formed to excess during the chronic inflammation process and, as highly toxic inflammation mediators themselves, perpetually maintain the connective tissue destruction which proceeds via an irreversible lipid peroxidation of the cell membranes, are permanently involved in the progressive course, caused by a multitude of factors, of rheumatoid arthritis and other inflammatory disorders. As a result, antioxidatively active pharmaceuticals having the ability to deactivate these extremely cytotoxic oxygen radicals should permit specific engagement in the chronic course of the inflammation. A suitable animal model for this type of tissue destruction caused by oxygen radicals is Adriamycin (doxorubicin) induced inflammation in rats. The investigations were carried out by the method of D. M. Siegel et al. (Inflammation 4 (1980) p. 233) on male Sprague-Dawley rats having a body weight between 200 and 230 g in groups of 7 animals each, which received 0.1 mg of Adriamycin, dissolved in 0.1 ml of a 0.9% strength sodium chloride solution, by subcutaneous injection into the left rear paw. The increase in paw volume was determined by plethysmographic measurement 72 hours thereafter as a measure of the degree of inflammation. The test preparations were administered orally in 1% strength aqueous carboxymethylcellulose suspension once daily on 4 successive days, starting with the day of Adriamycin injection.

[8] = test system: microsomal lipid peroxidation; test: In-vitro inhibition of lipid peroxidation, microsomes (thiobarbituric acid test); type: biochemical; details: microsomes from the rat liver
Excerpt: (§2) Further convincing evidence of the pronounced protective action of the compounds according to the invention against aggressive oxygen radicals is provided by the thiobarbituric acid test of A. Ottolenghi (Arch. Biochem. Biophys. 79 (1959) pp. 355-363). Using this in-vitro method, the affect on microsomal and mitochondrial lipid peroxidation by antioxidatively active preparations can be determined from the malonodialdehyde produced on oxidative degredation of membrane-bound, polyunsaturated fatty acids.
(§3) Here too, the compounds of the formula I exerted a strong inhibitory action.

[9] = test system: mitochondrial lipid peroxidation; test: In-vitro inhibition of lipid peroxidation, mitochondria (thiobarbituric acid test); type: biochemical; details: mitochondria from the rat liver
Excerpt: as §2, §3

[10] = test system: 5-lipoxygenase; test: Inhibition of 5-lipoxygenase in isolated polymorphonuclear granulocytes; type: cell-based, human; details: concentration range between 10^-5 and 10^-6 mol/l, pre-incubation 15 minutes
Protocol: The inhibitory action of the compounds according to the invention on 5-lipoxygenase-catalysed degredation of arachidonic acid was investigated,as usual, in in-vitro experiments on isolated polymorphonuclear human granulocytes. To this purpose, cells stimulated by calcium ionophor A 23 187 (Calbiochem GmbH, Frankfurt/Main, FRG, Biochemical and Immunochemical Catalog 1985, p. 284) were incubated with ^14 C-labeled arachidonic acid, and the major radioactive degredation products of arachidonic acid, 5-hydroxyeicosatetraenoic acid (5-HETE) and leukotriene […] (LTB4), which has a particularly strong proinflammatory action, formed after 15 minutes at 37° C. by biotransformation were determined quantitatively with the aid of a radio monitor after separation by high-pressure liquid chromatography (HPLC).

[11] = test system: Arthus reaction; test: Active Arthus reaction; type: in vivo, female and male Sprague-Dawley rats; details: oral
Protocol: The experimental animals used were female and male Sprague-Dawley rats having a body weight between 80 and 100 g; they were injected subcutaneously into the tail root with 0.5 ml of an emulsion of pertussis vaccine and ovalbumin in paraffin oil. After two weeks, the rats were divided into groups of 8 animals each. The respective test substance or the pure vehicle (positive control) were administered orally 24 hours and one hour before induction of the Arthus reaction by injecting 0.1 ml of a 0.4% strength ovalbumin solution into the right rear paw. Sodium chloride solution was injected into the left paw. A group of non-sensitized animals (negative control) was likewise treated with ovalbumin in order to be able to exclude non-specific reactions to the protein. The measurement parameter used for the action of the preparation was the inhibition of the increase in paw volume compared to that of a sensitized, but untreated control group (positive control) 4 hours after ovalbumin provocation, when the swelling reaches its maximum.

[12] = NMRI mice, single i.p. administration, mortality within 7 days

SMILES	ED50 [1] [mg/kg]	Adjuvant arthritis (% inhibition at 50 mg/kg p.o.) [1] [%]	TD50 at 24 h [2] [mg/kg]	LD50 at 168 h [3, 12] [mg/kg]	normalization of the immune reactivity of lymphocytes towards mitogens [4]	inhibition of the increase in paw volume, collagen arthritis [5]	effect on immune function of lymphocytes in collagen arthritis [6]	protective effect against tissue destruction induced by Adriamycin [7]	LD50 at 168 h [3] [mg/kg]	further results
CC(C)(C)c1cc(-c2csc3nc(=O)cnn23)cc(C(C)(C)C)c1O [Example 1, 3-(3,5-Di-tert.butyl-4-hydroxyphenyl)-7H-thiazolo[3,2-b][1,2,4]triazin-7-one]	10.9	67	> 400	> 1200	substantial normalization of the immune reactivity	dose-dependent inhibition of the increase in paw volume	completely normalized the immune function of both T and B lymphocytes	strong, dose-dependent protective effect	–	selectivity ratio [2]: > 36.7; selectivity ratio ([3]; LD50 (mice i.p.) / ED50 (adjuvant arthritis), read-out: therapeutic range, quotient LD50/ED50): > 110; minimal effective dose ([5]; Rattus norvegicus, po, collagen arthritis, p.o., read-out: dose from which inhibition of the increase in paw volume was statistically significant): ≥ 25 mg/kg; Increase in paw volume ([7]; 20 mg/kg p.o.): 220 µL; Protective action in % ([7]; 20 mg/kg p.o.): 49%; Increase in paw volume ([7]; 40 mg/kg p.o.): 200 µL; Protective action in % ([7]; 40 mg/kg p.o.): 54%; Increase in paw volume ([7]; 80 mg/kg p.o.): 10 µL; Protective action in % ([7]; 80 mg/kg p.o.): 98%; IC50 [8]: 600 nM; IC50 [9]: 3000 nM; inhibition of formation of 5-HETE [10]: significantly inhibited; inhibition of formation of LTB4 [10]: significantly inhibited
Cc1cc(-c2csc3nc(=O)cnn23)cc(C(C)(C)C)c1O [Example 2, 3-(3-Tert.butyl-5-methyl-4-hydroxyphenyl)-7H-thiazolo[3,2-b][1,2,4]triazin-7-one]	–	41	> 400	> 1200	–	–	–	–	–	–
CC(C)(C)c1cc(-c2csc3nc(=O)c(CO)nn23)cc(C(C)(C)C)c1O [Example 3, 3-(3,5-Di-tert.butyl-4-hydroxyphenyl)-6-hydroxymethyl-7H-thiazolo[3,2-b][1,2,4]triazin-7-one]	–	41	> 200	> 1200	–	–	–	–	–	–
Cc1nn2c(-c3cc(C(C)(C)C)c(O)c(C(C)(C)C)c3)csc2nc1=O [Example 6]	–	50	> 200	–	–	–	–	–	> 1200	–
CCCc1nn2c(-c3cc(C(C)(C)C)c(O)c(C(C)(C)C)c3)csc2nc1=O [Example 9]	–	45	> 200	–	–	–	–	–	> 1200	–
COc1ccc2cc(C(C)C(=O)O)ccc2c1 (stereo not shown) [Naproxen, 2-(6-methoxy-2-naphthyl)-propionic acid, reference compound]	17.5	55	–	–	ineffective	only non-significant inhibition values	no effect	ineffective	–	effect on Arthus reaction [11]: ineffective
